Measurements taken from PMC6983046, “Meroterpenoids from the Fungus Ganoderma sinensis and First Absolute Configuration Clarification of Zizhine H” (Molecules, 2019).

Columns and labels:
[1] = Cell viability (CCK8) assay, HDF normal cells; format: cell-based, human; details: human, HDF cells (normal human embryonic lung fibroblasts), CCK8, 48 h
Experimental: (§1) All cell lines were purchased from the Cell Bank of China Science Academy (Shanghai, China) and maintained in Dulbecco’s Modified Eagle Medium (DMEM) supplemented with 10% fetal bovine serum and 100 U/mL penicillin-streptomycin, and incubated at 37 °C in an atmosphere of 5% CO2. Cell viability was evaluated by the CCK8 assay kit (Dojindo Laboratories, Tokyo, Japan) according to the manufacturer’s instructions. Exponentially growing cells were seeded at 2–8 × 10^3 cells per well in 96-well culture plates for 24 h. Cells were exposed to increasing concentrations (0–80 μM) of 4, 5, 6, or 5-FU for 48 h. The equal volume of DMSO was used as the solvent control. CCK8 solution (10 μL) was added to each well and incubated for another 1–4 h. Light absorbance of the solution was measured at 450 nm (Epoch 2; BioTek Instruments, Inc. Winooski, VT, USA). The IC50 values were calculated using the GraphPad prism 7 and analyzed by fitting a curve using nonlinear regression. page 53: Figure S63. The calculated and the experimental ECD spectra of 5 and 6. Figure S64. Cytotoxic effects of compound-4,compound-5, compound-6 and 5-FU on human cancer cells (A, B, C) and normal cells (D) Cells were treated with various concentrations of compound-4,compound-5, compound-6 and 5-FU for 48 h. Cytotoxic effect of the compounds was determined by CCK8 assay. Percentages of viable cells were calculated by comparing treated and solvent control cells. Data are the mean ± S.D. of three replicates. […]

[2] = tested on: A549: human lung cancer cells; test: Cell viability (CCK8) assay, A549; format: cell-based; details: for IC50: CCK8, 48 h
Experimental: as §1

[3] = tested on: BGC-823: human gastric cancer cells; test: Cell viability (CCK8) assay, BGC-823; format: cell-based; details: BGC-823 cells; for IC50: CCK8, 48 h; for cytotoxic activity (cells sensitive to compound), BGC-823: result in words
Experimental: as §1

[4] = tested on: KYSE30: human esophageal cancer cells; test: Cell viability (CCK8) assay, KYSE30; format: cell-based; details: for cytotoxic activity (cells sensitive to compound), KYSE30: result in words
Experimental: as §1

[5] = tested on: HDF: normal human embryonic lung fibroblasts; test: Cell viability (CCK8) assay, HDF normal cells; format: cell-based; details: CCK8, 48 h
Experimental: as §1

[6] = Homo sapiens, KYSE-30, CCK8, 48 h

Row | Compound | IC50 at 48 h [1] [µM] | IC50 ([2]; Homo sapiens, A549, 48 h) [µM] | IC50 ([3]; Homo sapiens) [µM] | IC50 [4, 6] [µM] | IC50 [5] [µM] | IC50 [2] [µM] | IC50 [3] [µM] | IC50 ([4]; CCK8, 48 h) [µM] | cytotoxic activity (cells sensitive to compound), BGC-823 [3] | cytotoxic activity (cells sensitive to compound), KYSE30 [4] | cytotoxic activity (cells sensitive to compound), A549 ([2]; result in words)
1 | C/C(=C\CC/C(=C/CC/C(=C/Cc1cc(O)ccc1O)C(=O)O)CO)COC(=O)/C=C/c1ccc(O)cc1 [Compound 3, (2Z,5Z,9E)-2-(2-(2,5-dihydroxyphenyl)ethylidene)-6-(hydroxymethyl)-11-(((E)-3-(4-hydroxyphenyl)acryloyl)oxy)-10-methylundeca-5,9-dienoic acid] | > 160 | > 160 | > 160 | > 160 | – | – | – | – | – | – | –
2 | O=c1[nH]cc(F)c(=O)[nH]1 [Compound 5-FU, reference compound] | – | – | – | – | 51.1 ± 2.43 | 35 ± 2.42 | 37.7 ± 1.87 | 8.43 ± 0.19 | – | – | –
3 | C/C(=C\CCC1=CCC[C@@](CC(=O)c2cc(O)ccc2O)(C(=O)O)OC1)COC(=O)/C=C/c1ccc(O)cc1 [(−)-2, (R)-2-(2-(2,5-dihydroxyphenyl)-2-oxoethyl)-6-((E)-5-(((E)-3-(4-hydroxyphenyl)acryloyl)oxy)-4-methylpent-3-en-1-yl)-2,3,4,7-tetrahydrooxepine-2-carboxylic acid] | > 160 | > 160 | > 160 | > 160 | – | – | – | – | – | – | –
4 | C/C(=C\C[C@H](O)/C(=C/CCC1=C[C@@H](c2cc(O)ccc2O)OC1=O)CO)COC(=O)/C=C/c1ccc(O)cc1 [Compound 6, (E)-(S,2E,6E)-9-((S)-5-(2,5-dihydroxyphenyl)-2-oxo-2,5-dihydrofuran-3-yl)-5-hydroxy-6-(hydroxymethyl)-2-methylnona-2,6-dien-1-yl 3-(4-hydroxyphenyl)acrylate] | > 160 | > 160 | 64.25 ± 0.37 | 85.4 ± 2.82 | – | – | – | – | sensitive | sensitive | –
5 | COC(=O)/C(=C\C(=O)c1cc(O)ccc1O)CC/C=C(\CO)CC/C=C(\C)COC(=O)/C=C/c1ccc(O)cc1 [Compound 4, (2Z,5Z,9E)-methyl 2-(2-(2,5-dihydroxyphenyl)-2-oxoethylidene)-6-(hydroxymethyl)-11-(((E)-3-(4-hydroxyphenyl)acryloyl)oxy)-10-methylundeca-5,9-dienoate] | > 160 | 63.4 to 80.8 | > 160 | > 160 | – | 72.1 ± 8.7 | – | – | – | – | sensitive
6 | C/C(=C/CC/C(=C/C(=O)c1cc(O)ccc1O)C(=O)O)CO [Compound 7, (2Z,5Z)-2-(2-(2,5-dihydroxyphenyl)-2-oxoethylidene)-7-hydroxy-6-methylhept-5-enoic acid] | > 160 | > 160 | > 160 | > 160 | – | – | – | – | – | – | –
7 | C/C(=C\C[C@H](O)/C(=C/CCC1=C[C@H](c2cc(O)ccc2O)OC1=O)CO)COC(=O)/C=C/c1ccc(O)cc1 [Compound 5, (E)-(S,2E,6E)-9-((R)-5-(2,5-dihydroxyphenyl)-2-oxo-2,5-dihydrofuran-3-yl)-5-hydroxy-6-(hydroxymethyl)-2-methylnona-2,6-dien-1-yl 3-(4-hydroxyphenyl)acrylate] | > 160 | > 160 | 59.2 ± 2.73 | 76.3 ± 1.93 | – | – | – | – | sensitive | sensitive | –
8 | CC(=CCCC1=CCC[C@@](CC(=O)c2cc(O)ccc2O)(C(=O)O)OC1)CO [(−)-1, (R,E)-2-(2-(2,5-dihydroxyphenyl)-2-oxoethyl)-6-(5-hydroxy-4-methylpent-3-en-1-yl)-2,3,4,7-tetrahydrooxepine-2-carboxylic acid] | > 160 | > 160 | > 160 | > 160 | – | – | – | – | – | – | –
9 | CC(=CCCC1=CCC[C@](CC(=O)c2cc(O)ccc2O)(C(=O)O)OC1)CO [(+)-1, (S,E)-2-(2-(2,5-dihydroxyphenyl)-2-oxoethyl)-6-(5-hydroxy-4-methylpent-3-en-1-yl)-2,3,4,7-tetrahydrooxepine-2-carboxylic acid] | > 160 | > 160 | > 160 | > 160 | – | – | – | – | – | – | –
10 | C/C(=C\CCC1=CCC[C@](CC(=O)c2cc(O)ccc2O)(C(=O)O)OC1)COC(=O)/C=C/c1ccc(O)cc1 [(+)-2, (S)-2-(2-(2,5-dihydroxyphenyl)-2-oxoethyl)-6-((E)-5-(((E)-3-(4-hydroxyphenyl)acryloyl)oxy)-4-methylpent-3-en-1-yl)-2,3,4,7-tetrahydrooxepine-2-carboxylic acid] | > 160 | > 160 | > 160 | > 160 | – | – | – | – | – | – | –
